According to patent US7998961B2, “Hydantoin derivatives useful as antibacterial agents” (Schering Corporation, priority 2006, dated 2011):
Read-outs that look alike come from different tables or passages of the source.

Target: T1, LpxC enzyme (Escherichia coli, UniProt P0A725)
T1 sequence (P0A725 1-305): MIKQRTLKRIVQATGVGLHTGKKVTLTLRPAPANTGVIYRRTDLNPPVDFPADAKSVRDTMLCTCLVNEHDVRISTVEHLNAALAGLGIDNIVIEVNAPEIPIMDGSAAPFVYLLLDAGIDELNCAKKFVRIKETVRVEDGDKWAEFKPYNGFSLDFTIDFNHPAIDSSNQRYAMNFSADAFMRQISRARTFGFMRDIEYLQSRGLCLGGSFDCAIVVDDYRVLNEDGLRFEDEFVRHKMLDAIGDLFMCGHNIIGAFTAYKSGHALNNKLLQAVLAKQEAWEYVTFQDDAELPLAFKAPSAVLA
Experiment: standard LpxC enzyme assay (RapidFire high-throughput mass spectrometry)
Assay type: biochemical
Conditions: for IC50: LpxC inhibitory activity; for inhibition at 25 µg/mL: compound at 25 ug/mL
Experimental: The standard LpxC assay consists of 0.2 nM LpxC enzyme, 1.0 μM UDP-3-O—(R-3-hydroxymyristoyl)-N-acetylglucosamine, and test compound, in assay buffer and 2% DMSO. Assay buffer is comprised of 25 mM HEPES, pH 7.3, 150 mM NaCl, 2.0 mM DTT, and 0.01% BSA. The enzyme reaction is carried out in a 96-well assay plate, in a final volume of 102 μL. Solutions of test compounds are prepared in 100% DMSO. Reaction additions, in order, are (1) 2.0 μL compound solution, (2) 80 μL of assay buffer, (3) 10 μL of 10 μM UDP-3-O—(R-3-hydroxymyristoyl)-N-acetylglucosamine (in assay buffer) and, (4) 10 μL of LpxC enzyme (20 nM in assay buffer) to initiate the reaction. In positive control reactions, addition (1) has 2.0 μL of 100% DMSO (without compound); these reactions are used as the total signal (TSB) value. Reactions are incubated at room temperature for 60 minutes when 10 μL of 1 N HCl is added to stop the reaction. The plate is shaken by hand for 10 seconds to ensure complete quenching. Assay plates are sealed with foil tape, and stored at −80° C. for 24-48 hr prior to analysis.
The concentrations of substrate and product in the reaction mixtures are determined with BioTrove's proprietary RapidFire™ high-throughput mass spectrometry (HTMS). Assay mixtures are partially purified with reverse phase chromatography, where they are washed with water containing 5 mM ammonium formate and eluted onto the mass spectrometer in 80% acetonitrile, 20% water, and 5 mM ammonium formate. The mass spectrometry peak areas of the substrate and product are measured to determine the concentration of these analytes. The assay signal is the percentage of substrate that is converted to product. Percent inhibition, % I, in test samples is determined from the following equation: […]

[1] = read-out: LpxC enzyme assay rating (% inhibition at indicated concentrations of 100 and 25 ug/mL): 25
[2] = compound at 100 ug/mL, read-out: LpxC enzyme assay rating (% inhibition at indicated concentrations of 100 and 25 ug/mL): 100
[3] = read-out: Numerical LpxC inhibitory activity (% inhibition): 100

| SMILES | IC50 (read-out: IC50 rating) | also measured |
| --- | --- | --- |
| CC1(CC(=O)N2CCC(c3ccc(-c4ccncc4)cc3)CC2)NC(=O)NC1=O (centres unmarked) [Compound 79] | > 5000 nM |  |
| CC1(CC(=O)N2CCC(O)(c3ccc(C#Cc4ccccc4)cc3)CC2)NC(=O)NC1=O (centres unmarked) [Compound 38] | 1000 to 5000 nM |  |
| CC1(CC(=O)NCCc2cccc(C#Cc3ccccc3)c2)NC(=O)NC1=O (centres unmarked) [Compound 35] |  | inhibition at 25 µg/mL [1]: < 10% |
| C#Cc1ccc(C2CCN(C(=O)CC3(C)NC(=O)NC3=O)CC2)cc1 (centres unmarked) [Compound 75] | > 5000 nM |  |
| CC1(CNC(=O)c2ccc(C#Cc3ccccc3)cc2)NC(=O)NC1=O (centres unmarked) [Compound 66] | > 5000 nM |  |
| C[C@@H](NC(=O)CC1(C)NC(=O)NC1=O)c1ccc(C#Cc2ccccc2)cc1 (some centres unmarked) [Compound 40] | > 5000 nM |  |
| CC1(CC(=O)N2CCCC(c3ccc(C#Cc4ccccc4)cc3)C2)NC(=O)NC1=O (centres unmarked) [Compound 37] | 250 to 1000 nM |  |
| CC1(CC(=O)NCCc2ccc(C#Cc3ccccc3)cc2)NC(=O)NC1=O (centres unmarked) [Compound 34] |  | inhibition at 25 µg/mL [1]: 10 to 30%; inhibition at 25 µg/mL (read-out: Numerical LpxC inhibitory activity (% inhibition): 25): 30% |
| C[C@@H](O)[C@H](NC(=O)c1ccc(C#Cc2ccccc2)cc1)C1NC(=O)NC1=O (some centres unmarked) [Compound 64] | > 5000 nM |  |
| CC1(CC(=O)N2CCN(c3ccc(C#Cc4ccccc4)cc3)CC2)NC(=O)NC1=O (centres unmarked) [Compound 39] | 250 to 1000 nM | IC50 (read-out: IC50 values): 500 nM |
| O=C1NC(=O)C(CC(=O)N2CCC(c3ccc(Br)cc3)CC2)N1 (centres unmarked) [Compound 45] |  | inhibition at 100 µg/mL [2]: > 30%; inhibition at 100 µg/mL [3]: 68% |
| O=C1NC(=O)C(CC(=O)N2CCN(c3ccc(C#Cc4ccccc4)cc3)CC2)N1 (centres unmarked) [Compound 42] |  | inhibition at 100 µg/mL [2]: > 30% |
| CCC1(CC(=O)N2CCC(c3ccc(C#Cc4ccccc4)cc3)CC2)NC(=O)NC1=O (centres unmarked) [Compound 43] | 250 to 1000 nM | IC50 (read-out: IC50 values): 700 nM |
| CC1(CC(=O)Nc2ccccc2C#Cc2ccccc2)NC(=O)NC1=O (centres unmarked) [Compound 32] |  | inhibition at 25 µg/mL [1]: < 10% |
| CCC1(CC(=O)N2CCC(c3ccc(Br)cc3)CC2)NC(=O)NC1=O (centres unmarked) [Compound 47] |  | inhibition at 100 µg/mL [2]: > 30% |
| CCc1ccc(C2CCN(C(=O)CC3(C)NC(=O)NC3=O)CC2)cc1 (centres unmarked) [Compound 76] | > 5000 nM |  |
| CC1(CC(=O)N2CCC(c3ccc(CCN4CCOCC4)cc3)CC2)NC(=O)NC1=O (centres unmarked) [Compound 77] | > 5000 nM |  |
| CC1(CC(=O)N2CCC(c3ccc(Br)cc3)CC2)NC(=O)NC1=O (centres unmarked) [Compound 46] |  | inhibition at 100 µg/mL [2]: > 30% |
| CC1(CC(=O)N2CCC(c3ccc(-c4ccccc4)cc3)CC2)NC(=O)NC1=O (centres unmarked) [Compound 78] | > 5000 nM |  |
| CC1(CC(=O)Nc2ccc(C#Cc3ccccc3)cc2)NC(=O)NC1=O (centres unmarked) [Compound 33] | > 5000 nM |  |
| CC1(CC(=O)N2CCC(c3ccc(C#Cc4ccccc4)cc3)CC2)NC(=O)NC1=O (centres unmarked) [Compound 36] | 250 to 1000 nM | IC50 (read-out: IC50 values): 600 nM |
| O=C1NC(=O)C(CC(=O)N2CCC(c3ccc(C#Cc4ccccc4)cc3)CC2)N1 (centres unmarked) [Compound 41] |  | inhibition at 100 µg/mL [2]: > 30%; inhibition at 100 µg/mL [3]: 60% |
| C[C@H](O)[C@@H](NC(=O)c1ccc(C#Cc2ccccc2)cc1)C1NC(=O)NC1=O (some centres unmarked) [Compound 65] | > 5000 nM |  |
